Measured values taken from patent US4822791A, “Pharmaceutical compositions of-2,2-1,1-[bis-2,2'-(3,1-benzoxazin-4-one)9 ethylenes” (priority 1984, dated 1989).

How the values were obtained:
[1] = Acute toxicity LD50 in rats (Test Example 8); settings: rat, in vivo, po; one week; Probit method; read-out: LD50 value (mg/kg body weight) Rat p.o.
Method: ddy-Strain mice (male) and Wistar strain rats were used to obtain LD50 values.
According to the ordinary procedure, suspension or solution of test sample was administered to the animals. From the number of the died animals until one week after the administration, LD50 values were obtained by Probit method.

[2] = test system: experimental ulcer model (Shay); test: Anti-ulcer activity in experimental ulcer model (Shay); assay type: in vivo, Wistar strain male rats
How it was run: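 Wistar male rats, 8 weeks old, 5 per group, fasted 48 h, pylorus ligated under ether (Shay method); compound in 0.5% CMC/0.1% Tween 80 given id or ip, vehicle to controls. Stomach removed 8 h later; ulcers scored, gastric juice volume, acidity (alkali titration), pepsin (haemoglobin substrate) expressed as % inhibition versus control mean.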

O=C(Nc1ccccc1C(=O)O)C(=Cc1ccccc1)C(=O)Nc1ccccc1C(=O)O [Compound 11, 2,2'-[(1,3-dioxo-2-phenylmethylene-1,3-propanediyl)diimino]bisbenzoic acid]
LD50 at 168 h [1]: > 10000 mg/kg | Inhibition % Gastric Acidity ([2]; id 100 mg/kg): 4.7% | Inhibition % secretion amount of gastric juice ([2]; id 100 mg/kg): 0% | Inhibition % total pepsin titer ([2]; id 100 mg/kg): 0% | Inhibition % Gastric Acidity ([2]; id 200 mg/kg): 16.5% | Inhibition % secretion amount of gastric juice ([2]; id 200 mg/kg): 20.1% | Inhibition % total pepsin titer ([2]; id 200 mg/kg): 9.1%
